Test results taken from patent US11261232B2, “TNFRSF14 / HVEM proteins and methods of use thereof” (MEMORIAL SLOAN KETTERING CANCER CENTER, priority 2015, dated 2022).

Columns and labels:
[1] = tested on: purified human TFH cells; assay: TFH stimulation: viability and cytokine expression; assay type: cell-based
Text: FIG. 6A-I. Increased TFH cell recruitment supports to HVEM deficient lymphoma B cells. FIG. 6A, FACS identification and sorting of human GC derived TFH cells based on the markers CD3pos, CD4pos, CD25neg, PD1hi, CXCRShi, left: isotypic control; right; staining with anti-BTLA antibody; FIG. 6B and FIG. 6C, FACS measurement (FIG. 6B) and quantification (FIG. 6C) of intra-tumoral TFH cells in control and HVEM deficient murine lymphomas; FIG. 6D and FIG. 6E, qRT-PCR measurement of IL21 (FIG. 6D), and IL4 (FIG. 6E) in sorted intra-tumoral T cells (N=?); FIG. 6F, qRT-PCR measurement of the LTa, LTb, and TNFa mRNA expression in T cells isolated from the spleens of vector and shHVEM mice * p<?; G-I, qRT-PCR measurement of TNFa (FIG. 6G), LTa (FIG. 6H), and LTb (FIG. 61) in cell sorted TFH (n=4) cultured with anti-CD3/anti-CD28 Mabs in presence or not of soluble HVEM (solHVEM, 10 μg/ml), each symbol represents an independent TFH sample.
FIG. 13A-E. Analysis of TFH cell function in HVEM deficient lymphomas. FIG. 13A and FIG. 13B, qRT-PCR measurement of the receptors for IL21 (IL-21ra; A), and IL4 (IL4ra; B) in purified lymphoma B cells; FIG. 13C, Viability of purified murine TFH cells (samples: n=4) that were cultured for 3 days with or without (UN) stimulation by anti-CD3/anti-CD28 in the presence or absence of the soluble HVEM ectodomain (solHVEM: 10 μg/ml); FIG. 13D, Cell-Sorted GC-TFH cultured with anti-CD3/anti-CD28 Mabs in presence or not of solHVEM; production of CXCL13(FIG. 13E) and IL-21(FIG. 13F) evaluated by ELISA.
The stroma-derived cytokine CXCL13 is the main chemo-attractant for CXCRSpos follicular T helper cells (TFH) (Crotty, 2014). […] This increase in TFH cell numbers is associated with an elevated expression of the TFH derived cytokines. […] Further, it was observed that the increased production of IL21 and IL4 by TFH cells was matched with an elevated expression of the IL21 and IL4 receptors on FACS purified lymphoma B cells from HVEM deficient lymphomas (p<0.01) (FIGS. 13A and 13B). Human TFH cells are characterized by high-level expression of the BTLA receptor (FIG. 13C) and experiments were performed to test whether HVEM directly affected these tumor infiltrating T cells. […]
Purified TFH were cultured in IMDM 10% FCS with or without anti-CD3 (0.6 μg/mL) and anti-CD28 (0.6 m/mL, Pelicluster Sanquin) MAbs in the presence or not of solHVEM (10 μg/mL). After 3 days of culture, the number of viable TFH was evaluated by flow cytometry using count beads (Flow Count, Beckman Coulter) and Topro-3 staining (Invitrogen). CXCL13 was quantified in culture supernatants by ELISA (R&D Systems) according to manufacturer's instructions.

[2] = tested on: MYC/BCL2 double positive murine lymphoma cells; assay: In vivo treatment of engrafted myc-bcl2 murine lymphomas by intratumoral injection; set-up: species or system J:Nu nude mice
Description: FIG. 7A-H. The solHVEM (either Leu39-Va1202 or Pro37-Va1202) protein restores tumor suppressive effects of HVEM.
FIG. 20. sTNFRSF14 inhibits tumor growth in vivo. Xenograft myc-bc12 lymphomas were grown in the flanks of mice. When the tumors reached a volume of approximately 0.5 cm^3 mice were treated every other day by intra-tumoral injection in the flanks with 20 ug/ml of sTNFRSF14diluted in PBS. The control (vehicle) animals were treated with PBS. Tumors were weighed and volumes were measured twice weekly.
FIG. 21. sTNFRSF14 decreases lymphoma growth in a xenograft model. 5 million myc-Bcl2 cells were mixed with Matrigel and injected subcutaneously into the flanks of mice J:Nu Nude (Foxn1 nu/Foxn1 nu) mice. Animals were sacrificed according to IUCAC protocols. Upon sacrifice tumors were weighed and measured.
FIG. 22. Exogenous administration of sTNFRSF14 suppresses mouse lymphoma xenografts. Animals were sacrificed on day day 11 and the xenografted tumors were excised from the flanks of the mice. The tumors from each flank—treated (sTNFRSF14) and untreated (vehicle) were weighed. Bars represent the average of n=4 mice.
FIG. 24. Immunohistochemical analysis of xenograft tumors. Pathological analysis of sTNFRSF14 treated and vehicle treated mouse lymphomas. Tumors were excised from the flanks of the animals and fixed in 4% paraformaldehyde overnight. The tumors were sectioned and stained via IHC for particular tumor markers. Representative staining for HE, TUNEL, and Ki67 is shown.
Building on these findings, experiments were performed to test whether solHVEM would have any single agent activity against lymphomas. First, the expression of the BTLA receptor was characterized across a panel of human and mouse lymphoma (mostly DLBCL) cell lines. […] Next, experiments were performed to test if solHVEM had any effect on established BTLA^hi lymphomas in vivo. Briefly, aggressive MYC/BCL2 double positive murine lymphoma cells that express BTLA (BTLA^hi) were transplanted into the flanks of J:Nu nude mice and mice were treated with 20 μg of solHVEM or vehicle (PBS) every three days for a total four times once the engrafted tumors reached a volume of ˜50 mm3. […] Similar results were obtained both in vitro and in vivo with a different soluble HVEM molecule consisting of the extracellular region from amino acids Pro37 to Va1202 (SEQ ID NO. 6).
Transplant and treatment studies were generated as previously described (Schatz et al., 2011). In summary, subcutaneous injection of one million myc-bcl2 mouse lymphoma cells combined with Matrigel (BD) in the right and left flanks of mice J:Nu Nude (Foxn1 nu/Foxn1 nu). Once tumors reached 75-mm3 mice were treated every three days by intra tumor injection with 20 m of sHVEM diluted in PBS (right flank) or with vehicle control (left flank). Tumor sizes were measured and recorded every three days. Tumors were weighed after the animals were sacrificed and tumors excised.
To study the effects of the sTNFRSF14 polypeptide in vivo, five (5) million myc-bc12 cells were injected into both the right and left flanks of nude mice. Upon formation of palpable tumors treatment was commenced. The treatment comprise injecting mice intra-tumorally with either 20 ug of sTNFRSF14 on the right flank or vehicle on the left flank.

[3] = with or without anti-CD3/anti-CD28, solHVEM 10 μg/mL, 3 days
[4] = 20 μg intratumoral every three days
[5] = compared to vehicle-treated tumors

## solHVEM: Leu39-Val202 soluble HVEM ectodomain polypeptide of SEQ ID NO. 8
[1]; solHVEM 10 μg/ml
  expression of LTa in TFH cells: reductions
  expression of LTb in TFH cells: reductions
[1]; [3]
  TFH cell numbers: did not affect
  TFH cell viability: did not affect
[2]; [4]
  ERK inhibition in tumors by immunoblot: ERK inhibition
  apoptosis by TUNEL stain in tumors: abundant apoptosis
[2]; 20 μg intratumoral every three days, four times, n=4, p<0.01
  tumor growth: prevented any further tumor growth

B1: sTNFRSF14: Pro37-Val202 soluble HVEM ectodomain polypeptide of SEQ ID NO. 6 (protein, listed as Homo sapiens)
chain: PALPSCKEDEYPVGSECCPKCSPGYRVKEACGELTGTVCEPCPPGTYIAHLNGLSKCLQCQMCDPAMGLRASRNCSRTENAVCGCSPGHFCIVQDGDHCAACRAYATSSPGQRVQKGGTESQDTLCQNCPPGTFSPNGTLEECQHQTKCSWLVTKAGAGTSSSHWV
[2]; 20 ug intra-tumoral, right flank, vehicle left flank
  tumor growth: near complete growth delay
[2]; 11 days after treatment initiation, average, 20 ug intra-tumoral
  tumor weight: 0.75 grams
[2]; [5]
  TUNEL staining in tumors: higher levels
  levels of phosphorylated ERK in tumors: reduced levels
  proliferation marker Ki67 in tumors: decrease
